Test results published in the supplement of paper PMC11061612.

Tests used:
Test in all cases: combination Emax (second highest fraction inhibited in the dose matrix, 72 h); higher = more inhibition; extreme values may be limits of the assay
[1] = test system: NCI-H727 (Other Solid Carcinomas)
Summary of the method: (§1)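 Cell lines in DMEM/F12 or RPMI with 10% FBS were plated in 1536-well plates, held 24 hours at 37°C, 5% CO2, then given two-drug dose matrices for 72 hours (DMSO typically 0.2%). Viability was read by CellTiter-Glo 2.0 luminescence and scaled as inhibition from 0 (vehicle wells) to 1 (blank wells). Combination Emax is the second-highest inhibition in the matrix; Bliss excess is observed combination effect minus expected EA + EB − EA·EB, EA and EB being single-agent effects.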

[2] = test system: LU-65 (Non-Small Cell Lung Carcinoma)
Summary of the method: as §1

[3] = test system: AMO-1 (Plasma Cell Myeloma)
Summary of the method: as §1

[4] = test system: RF-48 (B-Cell Non-Hodgkin's Lymphoma)
Summary of the method: as §1

[5] = test system: ACHN (Kidney Carcinoma)
Summary of the method: as §1

[6] = test system: BT-549 (Breast Carcinoma)
Summary of the method: as §1

[7] = test system: SW13 (Other Solid Carcinomas)
Summary of the method: as §1

[8] = test system: MIA-PaCa-2 (Pancreatic Carcinoma)
Summary of the method: as §1

[9] = test system: Caov-4 (Ovarian Carcinoma)
Summary of the method: as §1

[10] = test system: MLMA (Other Blood Carcinomas)
Summary of the method: as §1

[11] = test system: NB69 (Neuroblastoma)
Summary of the method: as §1

[12] = test system: KYSE-450 (Esophageal Squamous Cell Carcinoma)
Summary of the method: as §1

SMILES	combination Emax [1]	combination Emax [2]	combination Emax [3]	combination Emax [4]	combination Emax [5]	combination Emax [6]	combination Emax [7]	combination Emax [8]	combination Emax [9]	combination Emax [10]	combination Emax [11]	combination Emax [12]
O=C(c1cc(Cc2n[nH]c(=O)c3ccccc23)ccc1F)N1CCN(C(=O)C2CC2)CC1 [Olaparib] + COc1nnc2ccc(N3CCC(c4ccc(OCCN5CCN(C)C(=O)[C@H]5C)cc4)CC3)nn12 [AZD5153] (first compound max 10 µM, 7x7, partner max 1 µM)	0.288	0.49	0.882	0.354	0.539	0.462	0.309	0.852	0.456	0.83	0.959	0.235
C=CCn1c(=O)c2cnc(Nc3ccc(N4CCN(C)CC4)cc3)nc2n1-c1cccc(C(C)(C)O)n1 [AZD1775] + CCc1c2c(nc3ccc(O)cc13)-c1cc3c(c(=O)n1C2)COC(=O)[C@]3(O)CC [SN-38] (first compound max 1 µM, partner max 0.3 µM)	0.514	0.944	0.974	0.783	0.946	0.857	0.964	0.969	0.905	0.786	0.997	0.951
Cc1c2c(nn1C)CSCc1cc(n(C)n1)CSc1cc(c3ccccc3c1)OCCCc1c(C(=O)O)n(C)c3c-2c(Cl)ccc13 [AZD5991] + CC(=O)O[C@H]1C(=O)[C@@]2(C)[C@H]([C@H](OC(=O)c3ccccc3)[C@]3(O)C[C@H](OC(=O)[C@H](O)[C@@H](NC(=O)c4ccccc4)c4ccccc4)C(C)=C1C3(C)C)[C@]1(OC(C)=O)CO[C@@H]1C[C@@H]2O [Paclitaxel] (first compound max 1 µM, 7x7, partner max 3 µM)	0.136	0.752	1	0.807	0.604	0.864	1	0.807	0.833	0.872	1	0.847
O=C(c1cc(Cc2n[nH]c(=O)c3ccccc23)ccc1F)N1CCN(C(=O)C2CC2)CC1 [Olaparib] + Cc1c2c(nn1C)CSCc1cc(n(C)n1)CSc1cc(c3ccccc3c1)OCCCc1c(C(=O)O)n(C)c3c-2c(Cl)ccc13 [AZD5991] (first compound max 10 µM, 7x7, partner max 1 µM)	0.106	0.2	1	0.365	0.177	0.217	0.763	0.161	0.482	0.384	0.886	0.0895
O=C(c1cc(Cc2n[nH]c(=O)c3ccccc23)ccc1F)N1CCN(C(=O)C2CC2)CC1 [Olaparib] + CN(CC[C@H](CSC1=CC=CC=C1)NC2=C(C=C(C=C2)S(=O)(=O)NC(=O)C3=CC=C(C=C3)N4CCC(CC4)[C@H](C5=CC=CC=C5C6=CC=C(C=C6)Cl)O)S(=O)(=O)C(F)(F)F)CCO [AZD4320] (first compound max 10 µM, 7x7, partner max 1 µM)	0.433	0.194	0.424	0.926	0.154	0.217	0.184	0.184	0.181	0.519	0.943	0.0781
O=C(c1cc(Cc2n[nH]c(=O)c3ccccc23)ccc1F)N1CCN(C(=O)C2CC2)CC1 [Olaparib] + CC1(C)CCC(CN2CCN(c3ccc(C(=O)NS(=O)(=O)c4ccc(NCC5CCOCC5)c([N+](=O)[O-])c4)c(Oc4cnc5[nH]ccc5c4)c3)CC2)=C(c2ccc(Cl)cc2)C1 [Venetoclax] (first compound max 10 µM, 7x7, partner max 1 µM)	0.119	0.164	0.333	0.606	0.143	0.18	0.213	0.209	0.137	0.265	0.643	0.0027
C[C@@H](Oc1cc(-c2cnn(C3CCNCC3)c2)cnc1N)c1c(Cl)ccc(F)c1Cl [Crizotinib] + Cn1cnc2c(F)c(Nc3ccc(Br)cc3Cl)c(C(=O)NOCCO)cc21 [Selumetinib] (first compound max 10 µM, 7x7, partner max 10 µM)	0.958	0.974	0.999	0.306	0.572	0.38	0.522	0.763	0.552	0.491	1	0.381
Cc1c2c(nn1C)CSCc1cc(n(C)n1)CSc1cc(c3ccccc3c1)OCCCc1c(C(=O)O)n(C)c3c-2c(Cl)ccc13 [AZD5991] + CS(=O)(=O)CCNCc1ccc(-c2ccc3ncnc(Nc4ccc(OCc5cccc(F)c5)c(Cl)c4)c3c2)o1 [Lapatinib] (first compound max 1 µM, 7x7, partner max 10 µM)	0.299	0.332	1	0.244	0.481	0.412	0.973	0.496	0.891	0.232	0.902	0.541
